# In PMC5653977 (EMBO Molecular Medicine, 2017):
# How the values were obtained:
# ERBB4 [1] = molecular target: ERBB4 (Homo sapiens, UniProt Q15303); assay: Western blot of ERBB4 phosphorylation in transfected PC12 cells; assay type: cell-based; conditions: PC12 cells transfected with ERBB4-NTEV-tevS-GV, 10 ng/ml EGFld, 10 μM, 1 h
# Protocol: After 24 h of expression, cells were treated as indicated and lysed in a 1% Triton‐X lysis buffer (50 mM Tris [pH 7.5], 150 mM NaCl, 1% Triton X‐100, 1 mM EGTA) supplemented with 10 mM NaF, 1 mM […], 1 mM ZnCl2 4.5 mM Na4P20_7, as phosphatase inhibitors, and the complete protease inhibitor cocktail (Roche).
# (§1) Each blot was replicated two times.
# NRG1-ERBB4 signaling = assay: Nrg1-ERBB4-PIK3R1 split TEV co-culture compound screen of the NIH Clinical Collection; assay type: cell-based, human; conditions: compounds at 10 μM, 24 h; PC12 split TEV assay cells co-cultured with Nrg1-expressing PC12 cells; analysed with cellHTS2
# Erbb4 [2] = molecular target: T1, Erbb4 (Mus musculus, UniProt Q61527); assay: Western blot of phospho-Erbb4 in prefrontal cortex of spironolactone-treated mice; assay type: in vivo; conditions: Nrg1-tg mice, 50 mg/kg s.c. daily for 21 days, prefrontal cortex lysates
# T1 construct: from tissue; host or cells: prefrontal cortex of Nrg1-tg and wt mice (C57Bl/6)
# T1 sequence (Q61527 26-1308): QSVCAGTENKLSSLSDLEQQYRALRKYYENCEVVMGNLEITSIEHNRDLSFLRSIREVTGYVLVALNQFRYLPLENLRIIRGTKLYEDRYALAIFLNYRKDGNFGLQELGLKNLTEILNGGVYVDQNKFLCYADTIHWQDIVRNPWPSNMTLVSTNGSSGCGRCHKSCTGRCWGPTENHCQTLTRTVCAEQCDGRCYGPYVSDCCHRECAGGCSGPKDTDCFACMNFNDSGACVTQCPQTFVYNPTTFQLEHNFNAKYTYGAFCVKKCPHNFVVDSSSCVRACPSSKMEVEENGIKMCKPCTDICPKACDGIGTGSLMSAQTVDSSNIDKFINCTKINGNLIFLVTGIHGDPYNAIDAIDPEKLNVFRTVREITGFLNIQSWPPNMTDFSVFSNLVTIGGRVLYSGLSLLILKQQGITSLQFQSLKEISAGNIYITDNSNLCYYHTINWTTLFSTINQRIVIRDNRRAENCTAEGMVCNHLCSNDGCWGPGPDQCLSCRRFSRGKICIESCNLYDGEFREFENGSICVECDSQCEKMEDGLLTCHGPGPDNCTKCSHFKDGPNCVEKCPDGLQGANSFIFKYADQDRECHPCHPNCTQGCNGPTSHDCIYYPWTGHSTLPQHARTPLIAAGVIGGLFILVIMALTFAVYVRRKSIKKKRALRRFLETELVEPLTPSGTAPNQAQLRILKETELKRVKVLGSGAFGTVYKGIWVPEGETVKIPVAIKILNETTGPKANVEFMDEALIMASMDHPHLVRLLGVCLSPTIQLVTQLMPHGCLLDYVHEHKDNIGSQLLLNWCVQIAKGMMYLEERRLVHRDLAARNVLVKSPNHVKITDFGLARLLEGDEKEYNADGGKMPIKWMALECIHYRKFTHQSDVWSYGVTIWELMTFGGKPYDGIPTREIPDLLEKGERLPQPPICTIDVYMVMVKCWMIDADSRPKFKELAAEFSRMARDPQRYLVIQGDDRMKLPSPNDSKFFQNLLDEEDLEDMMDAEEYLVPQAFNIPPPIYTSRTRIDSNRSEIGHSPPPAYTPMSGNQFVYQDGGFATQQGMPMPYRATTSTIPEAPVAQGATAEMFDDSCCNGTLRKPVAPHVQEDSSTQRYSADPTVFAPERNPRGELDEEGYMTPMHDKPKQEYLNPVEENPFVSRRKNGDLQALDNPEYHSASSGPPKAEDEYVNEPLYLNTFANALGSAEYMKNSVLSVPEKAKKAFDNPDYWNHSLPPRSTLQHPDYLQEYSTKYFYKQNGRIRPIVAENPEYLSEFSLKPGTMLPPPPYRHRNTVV
# Protocol: For the generation of lysates, the isolated tissue was immediately placed into cooled (4°C) sucrose buffer (320 mM sucrose, 10 mM Tris–HCl, 1 mM NaHCO3, 1 mM MgCl2, supplemented with 10 mM NaF, 1 mM […], 1 mM ZnCl2, 4.5 mM Na4P20_7 as phosphatase inhibitors, and the complete protease inhibitor cocktail (Roche)), homogenized using an ultra‐turrax (IKA GmbH, Staufen, Germany), sonicated (3 pulses for 10 s), and denatured for 10 min at 70°C in LDS sample buffer.
# as §1
# Treatment was continued throughout the behavioral analysis period.
# [3] = mouse, in vivo
# Protocol: (§2) Treatment was continued throughout the behavioral analysis period. To avoid injection‐induced stress prior to behavioral testing, mice were injected in the afternoon, after the entire cohort has completed the behavioral paradigm.
# Nrg1-tg and wt mice = assay: Y-maze test; assay type: in vivo, mouse; conditions: 50 mg/kg s.c. daily
# Protocol: For behavioral testing, age‐matched male mice (8–16 weeks) on C57Bl/6 background that constitutively overexpress the 2xHA‐tagged Nrg1 type III β1a isoform (Nrg1‐tg) under the control of the mouse Thy1.2 promoter (Velanac et al, 2012) and their wild‐type (wt) littermates as controls were used. Animals were group‐housed in the same ventilated sound‐attenuated rooms under a 12‐h light/12‐h dark schedule (lights on at 8:00 am) at an ambient temperature of 21°C with food and water available ad libitum. One week prior to experiments, mice were separated into single cages and habituated to the experimental rooms. To minimize the influence of the circadian rhythm on drug actions, the treatment groups were analyzed at balanced time points during the light phase. […] All animal experiments were conducted in accordance with NIH principles of laboratory animal care and were approved by the Government of Lower Saxony, Germany, in accordance with the German Animal Protection Law.
# as §2
# Chain of ERBB4 (Q15303 26-1308): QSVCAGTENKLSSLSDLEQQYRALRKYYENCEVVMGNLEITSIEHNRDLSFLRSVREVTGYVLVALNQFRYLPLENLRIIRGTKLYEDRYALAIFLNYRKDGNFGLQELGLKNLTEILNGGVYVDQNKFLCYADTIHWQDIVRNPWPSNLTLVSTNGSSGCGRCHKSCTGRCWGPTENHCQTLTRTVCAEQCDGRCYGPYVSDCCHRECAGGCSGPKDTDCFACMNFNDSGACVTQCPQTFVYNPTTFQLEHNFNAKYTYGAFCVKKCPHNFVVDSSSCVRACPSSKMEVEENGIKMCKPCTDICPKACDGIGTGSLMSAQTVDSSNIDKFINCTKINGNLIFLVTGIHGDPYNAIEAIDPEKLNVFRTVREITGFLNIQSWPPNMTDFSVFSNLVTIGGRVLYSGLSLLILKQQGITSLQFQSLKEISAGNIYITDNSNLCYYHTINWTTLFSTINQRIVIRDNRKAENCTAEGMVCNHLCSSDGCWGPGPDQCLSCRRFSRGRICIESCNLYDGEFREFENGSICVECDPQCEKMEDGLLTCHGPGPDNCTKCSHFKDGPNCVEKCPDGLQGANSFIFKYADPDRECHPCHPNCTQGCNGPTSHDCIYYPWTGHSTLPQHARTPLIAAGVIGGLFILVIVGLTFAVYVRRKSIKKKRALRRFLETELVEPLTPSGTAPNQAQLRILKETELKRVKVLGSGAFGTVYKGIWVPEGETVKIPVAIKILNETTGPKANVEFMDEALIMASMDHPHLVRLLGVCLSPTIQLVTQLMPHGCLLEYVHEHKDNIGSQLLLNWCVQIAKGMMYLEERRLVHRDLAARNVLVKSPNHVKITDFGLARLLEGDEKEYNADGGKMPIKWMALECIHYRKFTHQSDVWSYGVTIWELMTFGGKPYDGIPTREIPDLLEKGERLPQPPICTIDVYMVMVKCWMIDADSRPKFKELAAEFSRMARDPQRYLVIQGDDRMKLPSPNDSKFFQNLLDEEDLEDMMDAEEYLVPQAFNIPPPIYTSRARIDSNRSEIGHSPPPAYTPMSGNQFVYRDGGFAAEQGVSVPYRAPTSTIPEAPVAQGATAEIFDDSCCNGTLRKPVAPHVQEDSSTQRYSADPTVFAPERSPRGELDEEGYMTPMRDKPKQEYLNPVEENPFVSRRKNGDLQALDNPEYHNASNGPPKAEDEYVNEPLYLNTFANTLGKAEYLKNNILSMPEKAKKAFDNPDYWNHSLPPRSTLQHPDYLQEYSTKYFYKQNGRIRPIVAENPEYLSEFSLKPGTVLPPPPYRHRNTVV
compound,measurement,setting,value
CC(=O)S[C@@H]1CC2=CC(=O)CC[C@]2(C)[C@H]2CC[C@@]3(C)[C@@H](CC[C@@]34CCC(=O)O4)[C@H]12 [Spironolactone],ERBB4 phosphorylation levels at Tyr1056,ERBB4 [1],reduces but not abolishes the phosphorylation levels
same,Z-SCORE,NRG1-ERBB4 signaling,9.25
same,phospho-Erbb4 levels (p-ERBB4-Y1284 antibody),Erbb4 [2],robust reduction
same,side effect in treated mice,[3],no major side effect
same,arm choices in the Y-maze (activity),Nrg1-tg and wt mice,There was no effect of treatment
same,working memory (alterations in the Y-maze),Nrg1-tg and wt mice; Nrg1-tg mice,rescued these deficits
